Experimental data as given in patent publication US9801901B2, “Alginate oligomers for use in overcoming multidrug resistance in bacteria” (priority 2009, dated 2017).
Converted amounts (≈) assume the structure as drawn. Marks after values point to notes of the source that are not given here.

Tested on: V23 1322 Burkholderia cepacia
Experiment: MIC assay, CAMHB with alginate oligomer, no visible growth
Assay type: cell-based
Conditions: Table 5, V23 MDR Burk cep

Question: Which results are given for `CC1(C)C[C@@H]1C(=O)N/C(=C\CCCCSC[C@H](N)C(=O)O)C(=O)O` [Primaxin, Imipenem/cilastatin]?
Answer: MIC (Burkholderia cepacia, OligoCF-5/20 0G): 32 µg/mL (≈ 89.3 µM); MIC (OligoCF-5/20 +2% G): 32 µg/mL (≈ 89.3 µM); MIC (OligoCF-5/20 +6% G): 32 µg/mL (≈ 89.3 µM); MIC (OligoCF-5/20 +10% G): 8^† μg/ml
